# Source: PubChem BioAssay AID602120 (Johns Hopkins Ion Channel Center, 2011)
# Molecular target: Potassium voltage-gated channel subfamily KQT member 1 (Homo sapiens) (UniProt P51787)
# Assay: PubChem AID 602120
# Details: KCNQ1-CHO cells, manual whole-cell patch clamp current; at 0.3 µM; hits give high values
# Sequence of Potassium voltage-gated channel subfamily KQT member 1 (Homo sapiens) (P51787 whole entry, looked up): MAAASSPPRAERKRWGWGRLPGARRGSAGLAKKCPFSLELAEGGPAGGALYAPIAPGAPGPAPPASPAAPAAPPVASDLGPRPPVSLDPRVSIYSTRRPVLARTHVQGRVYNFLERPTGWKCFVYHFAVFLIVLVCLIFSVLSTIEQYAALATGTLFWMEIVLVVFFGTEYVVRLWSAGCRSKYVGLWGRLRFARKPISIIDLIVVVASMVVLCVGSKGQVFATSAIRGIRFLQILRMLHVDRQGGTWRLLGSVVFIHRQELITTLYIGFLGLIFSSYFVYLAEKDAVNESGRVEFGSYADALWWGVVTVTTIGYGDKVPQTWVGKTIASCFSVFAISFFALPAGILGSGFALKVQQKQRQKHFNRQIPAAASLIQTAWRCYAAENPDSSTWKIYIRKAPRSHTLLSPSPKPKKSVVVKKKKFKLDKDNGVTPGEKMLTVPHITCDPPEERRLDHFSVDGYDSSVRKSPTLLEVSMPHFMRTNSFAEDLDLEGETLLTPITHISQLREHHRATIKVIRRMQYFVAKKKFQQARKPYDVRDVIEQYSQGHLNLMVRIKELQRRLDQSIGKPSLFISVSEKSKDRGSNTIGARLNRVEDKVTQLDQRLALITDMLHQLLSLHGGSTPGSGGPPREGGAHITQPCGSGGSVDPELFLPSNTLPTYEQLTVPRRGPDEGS
smiles,measurement,value
COc1ccc(-c2csc(NC(=O)[C@H]3CCCCN3S(=O)(=O)c3ccc(C)cc3)n2)cc1,fold activation,46.9
